Publication PMC10666288, “Unveiling the Catalytic Mechanism of a Processive Metalloaminopeptidase” (Biochemistry, 2023)
Values joined by “and” are separate entries in the source; they are usually repeats but may differ in a detail not shown here. Equal values may be shown once.

How the values were obtained:
Parameters in all cases: GG stays after cleavage) (N); made in house; host or cells: E. coli BL21(DE3)
PaPepA [1] = molecular target: T1, PaPepA (Pseudomonas aeruginosa, UniProt Q02RY8); assay: Metal activation of Leu-pNA cleavage (metal varied, Leu-pNA fixed); format: biochemical; details: with 2 mM Leu-pNA
T1 sequence (Q02RY8 whole entry): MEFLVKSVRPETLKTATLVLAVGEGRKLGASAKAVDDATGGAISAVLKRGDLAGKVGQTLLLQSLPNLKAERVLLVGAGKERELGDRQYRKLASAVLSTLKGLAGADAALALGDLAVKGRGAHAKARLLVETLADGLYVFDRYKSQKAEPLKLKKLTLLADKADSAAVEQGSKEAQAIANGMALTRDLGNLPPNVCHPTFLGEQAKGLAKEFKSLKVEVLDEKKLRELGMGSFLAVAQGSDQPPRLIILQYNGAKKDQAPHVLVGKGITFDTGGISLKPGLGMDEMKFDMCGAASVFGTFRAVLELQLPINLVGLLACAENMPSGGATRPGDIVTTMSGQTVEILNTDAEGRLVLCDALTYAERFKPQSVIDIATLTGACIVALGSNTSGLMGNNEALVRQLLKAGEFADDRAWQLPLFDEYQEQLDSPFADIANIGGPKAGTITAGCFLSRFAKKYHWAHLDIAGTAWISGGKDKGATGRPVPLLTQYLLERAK
Procedure: A BMG Labtech POLARstar Omega plate reader was used for activity assays and kinetic studies involving amino acids conjugated to para-nitroaniline (pNA) (Sigma) or peptides as substrates. Assays were carried out at 25 °C in clear half-area 96-well plates (Greiner Bio-One). […] For kinetic assays investigating Leu-AMC as a substrate, a SpectraMax M2E was used. Reactions were carried out using black half-area 96-well plates with clear bottoms (Greiner Bio-One). Product formation was assessed by monitoring changes in fluorescence, with the excitation wavelength set at 341 nm and emission at 441 nm. The cutoff was 420 nm. PMT gain was set to medium, with six flashes per read. […] Calibration curves of pNA concentration vs absorbance and AMC vs fluorescence were constructed, and initial rate values were divided by the slope of these calibration curves to reveal the rate of product formation over time (Table S2).
For all assays excluding pH dependence curves, buffer conditions were as follows: 100 mM HEPES, 50 mM KCl, and pH 8.0. For assays carried out under pseudo-first-order conditions, one reaction component was fixed and in excess, while the other was varied. […] For assays involving variation of aa-pNA or aa-AMC, MnCl2 was added to a final concentration of 3 mM.

PaPepA [2] = molecular target: T1, PaPepA; assay: Solvent kinetic isotope effects; format: biochemical; details: H2O vs 80% D2O, metal varied, Leu-pNA fixed, pH 8.0
Procedure: SKIEs were determined by plotting saturation curves in H2O or 80% D2O. […] Differences between reaction rates under initial velocity conditions were measured varying the concentration of either Leu-pNA or Mn^2+, while keeping the other component constant and in excess (at least 5× the value of KM or KACT, Scheme 2). Experiments were performed at pH 8.0 (100 mM HEPES, with 50 mM KCl). For proton inventory studies, D2O was varied from 0 to 80% in 10% increments. All proton inventory studies were carried out on the same day by using the same enzyme stock.
When calculating SKIEs, kcat and KM were obtained from the Michaelis–Menten curves in H2O. The 80% D2O Michaelis–Menten curve was fit to the following equation: [drawing 2] 2 where Fi is the fraction D2O, and EV/K and EV are the isotope effects −1 on kcat/KM and kcat, respectively.

PaPepA [3] = molecular target: T1, PaPepA; assay: Isothermal titration calorimetry of metal binding
Procedure: Purified PaPepA (100 μM) was buffer exchanged into ITC buffer (50 mM Tris, 140 mM NaCl, pH 7.4) using a Millipore Amicon Ultra-4 centrifugal unit (10 kDa MWCO). The protein was syringe-filtered through a […] and diluted to 50 μM. 3 mL solutions of filtered metal were also prepared. A 400 μM solution of MnCl2 and a 1 mM solution of MgCl2 were prepared by dilution of 1 M metal chloride stocks (Sigma) into ITC buffer.
Buffer, protein, and metal solutions were degassed. Following extensive washes with ITC buffer, the protein was loaded into the cell (volume 1.43 mL) of a VP-ITC (MicroCal) and MnCl2 or MgCl2 solution was loaded into the syringe (total volume 300 μL). Experiments were carried out using the following settings: temperature = 25 °C, duration = 4 s, spacing = 210 s, filter period = 2 s, for 35 injections (one injection of 2 μL followed by 34 injections of 8 μL). Data were analyzed using Origin(Pro), Version 2021 (OriginLab Corporation, Northampton, Massachusetts, USA), and MicroCal PEAQ-ITC analysis software (Malvern).

For [Mn+2] [Mn^2+], the KACT (PaPepA [1]; pH 8.0) was 0.10 ± 0.01 mM, the kcat (PaPepA [1]; pH 8.0) was 0.27 s^–1 and 0.274 ± 0.004 s^–1 and the kcat/KACT (PaPepA [1]; pH 8.0) was 2.7 ± 0.2 s^–1mM^–1. For the same compound, the KACT (PaPepA [1]; pH 8.0, as given in text) was 0.1 mM, the “^D2Okcat” value (PaPepA [2]) was 3.9 ± 0.1 and the “^D2Okcat/KACT” value (PaPepA [2]) was 1.9 ± 0.2. For the same compound, the “greater affinity for Mn^2+ than Mg^2+” value (PaPepA [3]; ITC titration curves) was “approximately 150 times”, the Kd (PaPepA [3]; ITC, first line per metal: N 1, [PepA] 35.80 ± 1.5 (Mn) or 32.60 (Mg) µM, [Metal] 400.0 or 1000 µM) was 0.0122 ± 0.0015 µM and the Kd (PaPepA [3]; ITC, one binding site per monomer, 25 °C, pH 7.4) was 0.0136 ± 0.0005 µM. It also gave a Kd (PaPepA [3]; ITC, one binding site per monomer, 25 °C, pH 7.4, listed as Mn2+) of 0.012 µM, a Kd (PaPepA [3]; ITC, second line per metal: N 1, [PepA] 47.00 or 48.00 µM, [Metal] 526.5 ± 22.5 (Mn) or 1470 (Mg) µM) of 0.0163 ± 1e-05 µM and an N (PaPepA [3]; ITC, third line per metal: N fitted) of 0.76 ± 0.03. It also gave a Kd (PaPepA [3]; ITC, third line per metal: N fitted, [PepA] 47.00 or 48.00 µM, [Metal] 400.0 or 1000 µM) of 0.0122 ± 0.0001 µM.
